Measured values as given in ChEMBL document CHEMBL1201862, “PubChem BioAssay data set” (2004).
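Cells were grown in 96-well plates and exposed to each compound for 48 hours at five concentrations; endpoints were interpolated linearly between bracketing concentrations, or set to the highest concentration if not reached. GI50 = concentration required for 50% inhibition of growth.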 The source made the active and inactive calls. Cut-off read from the data, not from the text of the source: active = GI50 up to about 1.1 µM and inactive = higher.

Columns and labels:
Test in all cases: inhibition of tumour cell growth, NCI panel, 48 h
[1] = system: MDA-MB-435
[2] = system: M14
[3] = system: DU-145
[4] = system: MDA-MB-231
[5] = system: IGROV-1
[6] = system: A498
[7] = system: PC-3
[8] = system: SK-OV-3
[9] = system: A549
[10] = system: 786-0
[11] = system: Malme-3M
[12] = system: NCI-H23
[13] = system: SNB-75
[14] = system: HOP-92
[15] = system: CAKI-1
[16] = system: MCF7
[17] = system: NCI-H460
[18] = system: MDA-N
[19] = system: CCRF-CEM
[20] = system: OVCAR-8

| Compound | GI50 [1] | GI50 [2] | GI50 [3] | GI50 [4] | GI50 [5] | GI50 [6] | GI50 [7] | GI50 [8] | GI50 [9] | GI50 [10] | GI50 [11] | GI50 [12] | GI50 [13] | GI50 [14] | GI50 [15] | GI50 [16] | GI50 [17] | GI50 [18] | GI50 [19] | GI50 [20] |
| --- | --- | --- | --- | --- | --- | --- | --- | --- | --- | --- | --- | --- | --- | --- | --- | --- | --- | --- | --- | --- |
| CC(=O)OCC(Br)C1(C)CCC(C(C)(C)Br)O1 (configuration not stated) | 69.5 µM (inactive) | 89.7 µM (inactive) | > 100 µM (inactive) | > 100 µM (inactive) | 80.2 µM (inactive) | > 100 µM (inactive) | 29.4 µM (inactive) | > 100 µM (inactive) | 63.8 µM (inactive) | > 100 µM (inactive) | 83.6 µM (inactive) | 65.5 µM (inactive) | 58.2 µM (inactive) | 20.6 µM (inactive) | > 100 µM (inactive) | 56.4 µM (inactive) | 57.9 µM (inactive) | 44.7 µM (inactive) | > 100 µM (inactive) | – |
| COC12OC3CC4(C)C(=CC3OC(OC(C)C1O)C2O)CCC1C4CCC2(C)C(c3ccc(=O)oc3)CCC12O (configuration not stated) | 0.00216 µM (active) | 0.0023 µM (active) | 0.00129 µM (active) | 0.00281 µM (active) | 0.00171 µM (active) | 0.00309 µM (active) | 0.00142 µM (active) | 0.00289 µM (active) | 0.00119 µM (active) | 0.00134 µM (active) | 0.00168 µM (active) | 0.00125 µM (active) | 0.00202 µM (active) | 0.00535 µM (active) | 0.00147 µM (active) | 0.00178 µM (active) | 0.0014 µM (active) | 0.00215 µM (active) | 0.00125 µM (active) | 0.00144 µM (active) |
| Cc1cc(C)c(S(=O)(=O)N[C@@H](/C=C(\Br)CO)C(C)C)c(C)c1 | 17.3 µM (inactive) | 30.5 µM (inactive) | 34.5 µM (inactive) | 23.6 µM (inactive) | 29.9 µM (inactive) | 20.7 µM (inactive) | 17.2 µM (inactive) | 50.5 µM (inactive) | 30.8 µM (inactive) | 30.5 µM (inactive) | 21.5 µM (inactive) | 33 µM (inactive) | 45 µM (inactive) | 23.1 µM (inactive) | 33.2 µM (inactive) | 19.6 µM (inactive) | 27.7 µM (inactive) | 26.1 µM (inactive) | 27.3 µM (inactive) | 33.7 µM (inactive) |
| O=C(/C=C/c1ccco1)c1cccc(C(=O)/C=C/c2ccco2)n1 | 48.5 µM (inactive) | 27.2 µM (inactive) | 24.9 µM (inactive) | 40.1 µM (inactive) | 6.82 µM (inactive) | > 72.1 µM (inactive) | 13.2 µM (inactive) | 47.8 µM (inactive) | 27.1 µM (inactive) | 3.4 µM (inactive) | 25.7 µM (inactive) | 11.7 µM (inactive) | 45.5 µM (inactive) | 32.9 µM (inactive) | 25 µM (inactive) | 0.662 µM (active) | 42.4 µM (inactive) | 10.7 µM (inactive) | 0.71 µM (active) | 2.69 µM (inactive) |
| C=C(CC)C(=O)c1ccc(OCC(=O)O)c(Cl)c1Cl [ETHACRYNIC ACID] | 17.5 µM (inactive) | 18.5 µM (inactive) | 29.5 µM (inactive) | 19.6 µM (inactive) | 22 µM (inactive) | 35.8 µM (inactive) | 24.9 µM (inactive) | 48.1 µM (inactive) | > 91.8 µM (inactive) | 6.93 µM (inactive) | 16.9 µM (inactive) | 25 µM (inactive) | 21.8 µM (inactive) | 12.2 µM (inactive) | 14.9 µM (inactive) | 6.05 µM (inactive) | 44.3 µM (inactive) | 23.1 µM (inactive) | 35.8 µM (inactive) | 17.5 µM (inactive) |
| O=[N+]([O-])c1cc(Cl)ccc1Sc1ccccc1 | > 100 µM (inactive) | > 100 µM (inactive) | > 100 µM (inactive) | > 100 µM (inactive) | > 100 µM (inactive) | > 100 µM (inactive) | > 100 µM (inactive) | > 100 µM (inactive) | > 100 µM (inactive) | > 100 µM (inactive) | > 100 µM (inactive) | > 100 µM (inactive) | 20.8 µM (inactive) | 42.2 µM (inactive) | 93.8 µM (inactive) | > 100 µM (inactive) | 75 µM (inactive) | 98.4 µM (inactive) | 89.9 µM (inactive) | > 100 µM (inactive) |
| CC[N+]1(C)CCC(O)(/C=C/c2ccccc2)C(C(=O)/C=C/c2ccccc2)C1 (configuration not stated) | 12.2 µM (inactive) | 11.3 µM (inactive) | 19.1 µM (inactive) | 10.8 µM (inactive) | 18.7 µM (inactive) | 21.1 µM (inactive) | 14.6 µM (inactive) | 18.2 µM (inactive) | 20.3 µM (inactive) | 4.02 µM (inactive) | 15 µM (inactive) | 15.2 µM (inactive) | 14.7 µM (inactive) | 9.46 µM (inactive) | 1.85 µM (inactive) | 3.05 µM (inactive) | 15 µM (inactive) | 6.11 µM (inactive) | 1.94 µM (inactive) | 9.1 µM (inactive) |
| COc1ccc(/C=C2\C[C@H]3[C@@H]4CCC5=C[C@@H](N6CCCC6)CC[C@]5(C)[C@H]4CC[C@]3(C)[C@H]2O)cc1 | 1.93 µM (inactive) | 1.51 µM (inactive) | 4.91 µM (inactive) | 1.96 µM (inactive) | 4.28 µM (inactive) | 1.61 µM (inactive) | 2.25 µM (inactive) | 5.18 µM (inactive) | 2.58 µM (inactive) | 1.53 µM (inactive) | 2.61 µM (inactive) | 3.44 µM (inactive) | 4.97 µM (inactive) | 2.49 µM (inactive) | 3.52 µM (inactive) | 1.93 µM (inactive) | 2.49 µM (inactive) | 1.57 µM (inactive) | – | 3.52 µM (inactive) |
| COc1ccc2[nH]c(S(=O)(=O)N3CC(CCl)c4ccc(N)cc43)cc2c1 (configuration not stated) | < 0.01 µM (active) | 0.0568 µM (active) | 0.429 µM (active) | 0.239 µM (active) | 0.0547 µM (active) | 11.2 µM (inactive) | 0.0973 µM (active) | 0.208 µM (active) | 0.146 µM (active) | 0.0771 µM (active) | 0.0984 µM (active) | – | 0.0718 µM (active) | 13.7 µM (inactive) | 0.0254 µM (active) | 0.0184 µM (active) | < 0.0189 µM (active) | < 0.01 µM (active) | 0.362 µM (active) | 0.266 µM (active) |
| CC(C)(C)OC(=O)N/N=C(/N)Cc1ccccc1 | > 100 µM (inactive) | > 100 µM (inactive) | > 100 µM (inactive) | > 100 µM (inactive) | > 100 µM (inactive) | > 100 µM (inactive) | > 100 µM (inactive) | > 100 µM (inactive) | > 100 µM (inactive) | > 100 µM (inactive) | > 100 µM (inactive) | > 100 µM (inactive) | > 100 µM (inactive) | > 100 µM (inactive) | > 100 µM (inactive) | > 100 µM (inactive) | – | > 100 µM (inactive) | > 100 µM (inactive) | > 100 µM (inactive) |
| CC1(C)N=C(N)N=C(N)N1CCCCc1ccccc1 | 0.155 µM (active) | 0.181 µM (active) | 3.57 µM (inactive) | > 64.9 µM (inactive) | 0.232 µM (active) | 2.08 µM (inactive) | 9.51 µM (inactive) | – | 0.113 µM (active) | < 0.0305 µM (active) | 0.282 µM (active) | 0.31 µM (active) | 15.4 µM (inactive) | > 62.2 µM (inactive) | 7.94 µM (inactive) | 0.838 µM (active) | 0.151 µM (active) | 0.046 µM (active) | 0.483 µM (active) | 0.251 µM (active) |
| COC(=O)/C=C/c1cc(OC)c2oc(-c3ccc(OC)c(OC)c3)c(C(=O)OC)c2c1 | > 100 µM (inactive) | > 100 µM (inactive) | > 100 µM (inactive) | > 100 µM (inactive) | > 100 µM (inactive) | > 100 µM (inactive) | > 100 µM (inactive) | > 100 µM (inactive) | > 100 µM (inactive) | > 100 µM (inactive) | > 100 µM (inactive) | > 100 µM (inactive) | – | > 100 µM (inactive) | > 100 µM (inactive) | > 100 µM (inactive) | > 100 µM (inactive) | > 100 µM (inactive) | > 100 µM (inactive) | > 100 µM (inactive) |
| COc1ccc(OC)c(CC2CCc3nc(N)nc(N)c3C2)c1 (configuration not stated) | 12.6 µM (inactive) | 0.342 µM (active) | 1.62 µM (inactive) | 25.4 µM (inactive) | < 0.0453 µM (active) | 23.1 µM (inactive) | 0.0316 µM (active) | – | < 0.01 µM (active) | 0.0565 µM (active) | 0.0334 µM (active) | 0.251 µM (active) | 0.828 µM (active) | 21.9 µM (inactive) | 27.1 µM (inactive) | 0.509 µM (active) | < 0.01 µM (active) | < 0.01 µM (active) | 0.515 µM (active) | 20.3 µM (inactive) |
| COCn1cc(C2=C(C)C(=O)C(C)=C(C)C2=O)cn1 | 19.6 µM (inactive) | > 100 µM (inactive) | > 100 µM (inactive) | 18.6 µM (inactive) | > 100 µM (inactive) | > 100 µM (inactive) | > 100 µM (inactive) | – | > 100 µM (inactive) | 18 µM (inactive) | 99.5 µM (inactive) | > 100 µM (inactive) | 11.4 µM (inactive) | 12.7 µM (inactive) | > 100 µM (inactive) | > 100 µM (inactive) | > 100 µM (inactive) | 48.6 µM (inactive) | 21.9 µM (inactive) | 21.1 µM (inactive) |
